Where two headings read alike, the source gives them in different places.

Results on seven compounds are retold here after patent US20140343008A1, “HEPATITIS C TREATMENT” (Gilead Pharmasset LLC, priority 2013, published 2014).

Data set [1] can be described thus: Phase I pharmacokinetic study of the combination of Compound I and sofosbuvir in healthy volunteers. It counts as in vivo, human. As to conditions: for Ctau, Mean / Cmax / AUC / AUC(0-inf) / AUC(0-t): n = 18; for Cmax / AUC / AUC(0-inf) / AUC(0-t): both sexes, human; for AUC: read-out: AUCtau, Mean; for AUC(0-inf): healthy volunteers, read-out: AUCinf, Mean; for AUC(0-t): read-out: AUClast, Mean. The text has this: This example studied the pharmacokinetics (PK) of the combination of Compound I and sofosbuvir (SOF), along with two metabolites of SOF, Metabolite I and II, in healthy volunteers, as part of a Phase I clinical study for Compound I.
This was a randomized, open label, single-center, multiple-dose study that enrolled Healthy males and non-pregnant, non-lactating females from 18 to 45 years old. The duration of the study was up to 38 days, and duration of the treatment was 28 days.
Additional specific exclusion criteria included, (1) use of over the counter (OTC) or prescribed medications that affect gastric pH (i.e., antacids, H2 receptor antagonists (H2RAs), and/or proton-pump inhibitors (PPIs)) 28 days prior to baseline and (2) history of severe peptic ulcer disease, GERD, or other stomach acid diseases requiring prolonged (>6 months) medication or surgical therapy to modify gastric pH. […]
Plasma concentrations and pharmacokinetic parameters for the compounds were listed and summarized using descriptive statistics by treatment. In addition, an analysis of variance (ANOVA) using a mixed-effects model with treatment, period, sequence as fixed effects and subject within sequence as a random effect were fitted to the natural logarithmic transformation of PK parameters (AUCinf, AUClast, and Cmax).
The 90% confidence intervals were constructed for the ratio of geometric least-squares means of primary PK parameters for each of the test treatments (as shown in Table 1).

In another data set the target is P-gp (Homo sapiens, UniProt P08183). Briefly: In vitro drug transporter inhibition, P-gp. Type of data set: in vitro ADME. The text has this:
(§1) Based on the results of Example 1, it was contemplated that Compound I increased the exposure of sofosbuvir by inhibiting the activities of one or more drug transporters. This example carried out in vitro experiments to test whether Compound I inhibited any of the potentially relevant drug transporters, […], BCRP and P-gp.

Another data set has as its target T1, BCRP (Homo sapiens, UniProt Q9UNQ0).
T1 sequence (Q9UNQ0 1-655): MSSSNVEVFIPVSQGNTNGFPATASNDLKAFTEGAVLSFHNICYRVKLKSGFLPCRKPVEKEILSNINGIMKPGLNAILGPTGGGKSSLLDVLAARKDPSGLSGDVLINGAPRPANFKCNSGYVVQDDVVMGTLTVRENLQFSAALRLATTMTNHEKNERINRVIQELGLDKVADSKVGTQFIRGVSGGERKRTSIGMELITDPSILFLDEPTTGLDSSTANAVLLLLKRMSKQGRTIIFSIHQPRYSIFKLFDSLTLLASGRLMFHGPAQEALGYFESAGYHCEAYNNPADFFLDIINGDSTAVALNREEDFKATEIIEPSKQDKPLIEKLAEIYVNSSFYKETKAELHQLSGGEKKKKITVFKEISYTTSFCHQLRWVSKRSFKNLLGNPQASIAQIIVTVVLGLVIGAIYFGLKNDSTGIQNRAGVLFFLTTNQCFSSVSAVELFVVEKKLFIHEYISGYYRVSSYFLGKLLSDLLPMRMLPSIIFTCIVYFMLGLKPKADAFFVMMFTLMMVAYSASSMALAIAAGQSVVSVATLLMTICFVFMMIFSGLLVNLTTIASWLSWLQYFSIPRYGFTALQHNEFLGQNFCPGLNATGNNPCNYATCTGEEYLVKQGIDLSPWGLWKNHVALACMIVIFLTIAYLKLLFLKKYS
In words: In vitro drug transporter inhibition, BCRP. Type of data set: in vitro ADME.
Source text: as §1

Data set [2] deals with human colon carcinoma cell line (caco-2). In words: Bidirectional permeability of sofosbuvir in caco-2 monolayers. As to conditions: for Papp of sofosbuvir, Forward, Average / Papp of sofosbuvir, Forward, Repat 2 / Papp of sofosbuvir, Forward, Repeat 1 / Papp of sofosbuvir, Reverse, Average / Papp of sofosbuvir, Reverse, Repat 2 / Papp of sofosbuvir, Reverse, Repeat 1 / effect of coincubation on permeability/efflux of sofosbuvir, fold increase: human, Caco-2, 120 min, pH 7.4. As for the experimental part:
(§2) Caco-2 human intestinal epithelial cell monolayers cultured for twenty-one to twenty-eight days were plated on 12 well Transwell® dual chamber plates.
(§3) Assays were run in duplicate (n=2) in one to two separate experiments. Assay buffer at pH 7.4 was placed in both chambers. Hanks buffer with 1% BSA was used in receiver compartment.
(§4) Apical side was dosed for apical-to-basolateral (A to B) assessment. Basolateral side was dosed for basolateral-to-apical (B to A) assessment. Donor side was sampled at time points of 0 and 120 minutes.
(§5) Receiver side was sampled at time points: 60 and 120 minutes.
(§6) The apparent permeability, Papp, and % recovery were calculated as follows: […]
(§7) Where, dR/dt is the slope of the cumulative concentration in the receiver compartment versus time in μM/s based on receiver concentrations measured at 60 and 120 minutes. Vr and Vd are the volumes in the receiver and donor compartment in cm^3, respectively. A is the area of the cell monolayer (1.12 cm^2). D0 and D120 are the measured donor concentrations at the beginning and end of the experiment, respectively. R120 is the receiver concentration at the end of the experiment (120 minutes).
In general terms: Passage across Caco-2 layers is used to estimate intestinal permeability.

Assay in data set [3]: as above
As to conditions: human, Caco-2, pH 7.4. As for the experimental part:
as §2, §3, §4, §5, §6, §7

The mark [4] stands for this setting: SOF + Comp I versus Comp I alone.
[5] abbreviates: plasma, oral, 100 mg, Comp I alone.
[6] abbreviates: in vivo, plasma analyte after SOF + Comp I.
The mark [7] stands for this setting: in vivo, plasma analyte after SOF alone.
The mark [8] stands for this setting: co-administration with Compound I versus SOF alone.

Chain of P-gp (P08183 whole entry): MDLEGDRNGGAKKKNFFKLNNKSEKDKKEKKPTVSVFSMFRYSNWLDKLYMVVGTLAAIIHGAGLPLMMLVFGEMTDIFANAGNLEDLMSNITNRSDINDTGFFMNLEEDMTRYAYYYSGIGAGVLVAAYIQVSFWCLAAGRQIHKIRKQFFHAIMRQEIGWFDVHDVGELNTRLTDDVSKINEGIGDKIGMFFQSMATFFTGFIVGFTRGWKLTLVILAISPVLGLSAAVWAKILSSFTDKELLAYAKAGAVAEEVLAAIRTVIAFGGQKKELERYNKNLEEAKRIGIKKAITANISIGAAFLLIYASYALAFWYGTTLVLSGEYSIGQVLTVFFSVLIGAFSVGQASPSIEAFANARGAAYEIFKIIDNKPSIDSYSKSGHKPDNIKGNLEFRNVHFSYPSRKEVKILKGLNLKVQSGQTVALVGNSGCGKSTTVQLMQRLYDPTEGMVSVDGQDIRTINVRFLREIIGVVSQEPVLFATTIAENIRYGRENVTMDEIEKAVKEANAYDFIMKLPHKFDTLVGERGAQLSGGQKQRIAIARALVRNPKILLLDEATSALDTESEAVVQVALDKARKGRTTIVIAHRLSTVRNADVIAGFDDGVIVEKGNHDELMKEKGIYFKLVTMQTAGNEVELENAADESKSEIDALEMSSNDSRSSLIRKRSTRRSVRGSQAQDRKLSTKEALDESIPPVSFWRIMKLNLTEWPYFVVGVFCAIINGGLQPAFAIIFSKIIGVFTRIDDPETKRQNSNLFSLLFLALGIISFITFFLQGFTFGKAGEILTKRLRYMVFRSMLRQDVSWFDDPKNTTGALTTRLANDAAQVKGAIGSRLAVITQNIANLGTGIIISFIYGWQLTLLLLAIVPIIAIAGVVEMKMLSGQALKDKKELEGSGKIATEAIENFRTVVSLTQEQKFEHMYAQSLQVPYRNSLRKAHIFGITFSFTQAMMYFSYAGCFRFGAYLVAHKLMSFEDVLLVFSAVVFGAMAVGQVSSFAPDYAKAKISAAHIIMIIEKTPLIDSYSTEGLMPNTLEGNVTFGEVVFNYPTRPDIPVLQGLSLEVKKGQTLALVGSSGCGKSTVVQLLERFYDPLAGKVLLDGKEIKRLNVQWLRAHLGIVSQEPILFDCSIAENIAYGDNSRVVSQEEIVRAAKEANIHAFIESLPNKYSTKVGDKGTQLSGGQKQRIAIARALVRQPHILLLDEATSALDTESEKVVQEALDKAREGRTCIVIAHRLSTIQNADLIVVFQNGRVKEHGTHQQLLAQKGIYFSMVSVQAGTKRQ

As for `COC[C@H]1C[C@@H](c2ncc(-c3ccc4c(c3)COc3cc5c(ccc6nc([C@@H]7CC[C@H](C)N7C(=O)[C@@H](NC(=O)OC)C(C)C)[nH]c65)cc3-4)[nH]2)N(C(=O)[C@H](NC(=O)OC)c2ccccc2)C1` [Compound I, methyl {(2S)-1-[(2S,5S)-2-(9-{2-[(2S,4S)-1-{(2R)-2-[(methoxycarbonyl)amino]-2-phenylacetyl}-4-(methoxymethyl)pyrrolidin-2-yl]-1H-imidazol-5-yl}-1,11-dihydroisochromeno[4′,3′:6,7]naphtho[1,2-d]imidazol-2-yl)-5-methylpyrrolidin-1-yl]-3-methyl-1-oxobutan-2-yl}carbamate], the “Ctau, Mean” value in data set [1] (Comp I alone) came out at 113 ng/mL. Also, in data set [1] (setting [4]), the “AUCtau, % GMR” value is on record as 112%; the “Cmax, % GMR” value turned out to be 106%; the “Ctau, % GMR” value is 118%. For the same compound, the “Ctau, Mean” value in data set [1] (SOF + Comp I) stood at 135 ng/mL. In addition, in data set [1] (setting [5]), the highest concentration (Cmax) worked out at 963 ng/mL and the AUC was 7690 ng·h/mL. In addition, in data set [1] (plasma, oral, Compound I analyte, SOF + Comp I), the Cmax came out at 1020 ng/mL. Besides, the AUC in data set [1] (plasma, oral, SOF + Comp I) amounted to 8600 ng·h/mL. For the same compound, the “inhibition of P-gp” value against P-gp is on record as “marked inhibition”. For the same compound, at BCRP, the “inhibition of BCRP” value is “not on other tested transporters”. In addition, in data set [2], the “Papp of sofosbuvir, Forward, Average” value is 0.66 10^−6 cm/s; the “Papp of sofosbuvir, Forward, Repat 2” value is 0.6 10^−6 cm/s; the “Papp of sofosbuvir, Forward, Repeat 1” value was 0.73 10^−6 cm/s; the “Papp of sofosbuvir, Reverse, Average” value is listed as 7.39 10^−6 cm/s. Besides, in data set [2], the “Papp of sofosbuvir, Reverse, Repat 2” value was 7.56 10^−6 cm/s; the “Papp of sofosbuvir, Reverse, Repeat 1” value is given as 7.22 10^−6 cm/s; the “effect of coincubation on permeability/efflux of sofosbuvir, fold increase” value is around 4 fold.

Turning to `CC1=CC[C@H](C(=O)N(c2cc(C#CC(C)(C)C)sc2C(=O)O)[C@H]2CC[C@](O)(CO[C@H]3CCOC3)CC2)CC1` [Compound III, 5-(3,3-dimethylbutyn-1-yl)-3-[(cis-4-hydroxy-4-{[(3S)-tetrahydrofuran-3-yloxy]methyl}cyclohexyl) {[(1R)-4-methylcyclohex-3-en-1-yl]carbonyl}amino]thiophene-2-carboxylic acid], in data set [2], the “Papp of sofosbuvir, Forward, Average” value is 0.3 10^−6 cm/s; the “Papp of sofosbuvir, Forward, Repat 2” value is listed as 0.28 10^−6 cm/s; the “Papp of sofosbuvir, Forward, Repeat 1” value is reported as 0.31 10^−6 cm/s; the “Papp of sofosbuvir, Reverse, Average” value is listed as 6.93 10^−6 cm/s. Moreover, in data set [2], the “Papp of sofosbuvir, Reverse, Repat 2” value is 6.82 10^−6 cm/s; the “Papp of sofosbuvir, Reverse, Repeat 1” value is on record as 7.05 10^−6 cm/s; the “effect of coincubation on permeability/efflux of sofosbuvir, fold increase” value is listed as around 2 fold.

Take `Fc1ccccc1-c1nc2ccn(Cc3ccc(-c4ccc(C(F)(F)F)cc4C(F)(F)F)nn3)cc-2n1` [Compound V, 5-((6-(2,4-bis(trifluoromethyl)phenyl)pyridazin-3-yl)methyl)-2-(2-fluorophenyl)-5H-imidazo[4,5-c]pyridine]: in data set [2], the “Papp of sofosbuvir, Forward, Average” value was 11.1 10^−6 cm/s; the “Papp of sofosbuvir, Forward, Repat 2” value is on record as 0.92 10^−6 cm/s; the “Papp of sofosbuvir, Forward, Repeat 1” value is 0.46 10^−6 cm/s; the “Papp of sofosbuvir, Reverse, Average” value is reported as 1.09 10^−6 cm/s. For the same compound, in data set [2], the “Papp of sofosbuvir, Reverse, Repat 2” value is 11.7 10^−6 cm/s; the “Papp of sofosbuvir, Reverse, Repeat 1” value was 10.5 10^−6 cm/s; the “effect of coincubation on permeability/efflux of sofosbuvir, fold increase” value was around 2 fold.

As for `CC(C)NCC(O)COc1cccc2ccccc12` (stereo not shown) [Propranolol, reference compound], in data set [2] (Caco-2), the “permeability through caco-2 cells (in words)” value is reported as “high permeability”.

As for `CC(C)OC(=O)[C@H](C)N[P@](=O)(OC[C@H]1O[C@@H](n2ccc(=O)[nH]c2=O)[C@](C)(F)[C@@H]1O)Oc1ccccc1` [Sofosbuvir, (S)-isopropyl 2-(((S)-(((2R,3R,4R,5R)-5-(2,4-dioxo-3,4-dihydropyrimidin-1(2H)-yl)-4-fluoro-3-hydroxy-4-methyltetrahydrofuran-2-yl)methoxy)(phenoxy)phosphoryl)amino)propanoate], in data set [1] (SOF + Comp I versus SOF alone), the “AUCinf, % GMR” value was 238%; the “AUClast, % GMR” value is listed as 238%; the “Cmax, % GMR” value is reported as 181%. In addition, the AUC(0-inf) in data set [1] (in vivo, plasma analyte after SOF + Comp I (100 mg)) turned out to be 2860 ng·h/mL. Moreover, in data set [1] (setting [6]), the Cmax turned out to be 1670 ng/mL and the AUC(0-t) was 2850 ng·h/mL. Also, in data set [1] (setting [7]), the AUC(0-inf) was 1200 ng·h/mL, the Cmax was 964 ng/mL and the AUC(0-t) stood at 1200 ng·h/mL. Moreover, in data set [1] (setting [8]), the “AUC increase by Compound I” value is around 2.4 fold and the “Cmax increase by Compound I” value was around 1.8 fold. Besides, in data set [3], the Papp A→B at 120 min, 10 μM came out at 0.25 ×10⁻⁶ cm/s and the efflux ratio at 120 min, 10 μM was found to be 43.6. For the same compound, the “permeability through caco-2 cells (in words)” value in data set [2] (sofosbuvir alone at 10 μM, control compounds for acceptance criteria) is listed as “low permeability”.

As for `C[C@H]1O[C@@H](O[C@H]2[C@@H](O)C[C@H](O[C@H]3[C@@H](O)C[C@H](O[C@H]4CC[C@@]5(C)[C@H](CC[C@@H]6[C@@H]5C[C@@H](O)[C@]5(C)[C@@H](C7=CC(=O)OC7)CC[C@]65O)C4)O[C@@H]3C)O[C@@H]2C)C[C@H](O)[C@@H]1O` [digoxin, reference compound], in data set [2] (control), the “transport of control transport substrate” value is listed as “Transport was observed”.

Consider lucifer yellow [reference compound], for which the “permeability through caco-2 cells (in words)” value in data set [2] (Caco-2) is on record as “indicated appropriate membrane integrity”.

In general, Cmax refers to the peak of the concentration-time curve. As a reminder, the Papp A→B is how fast a substance crosses the layer from the apical side. A lower Papp A→B goes with poor permeation. The term efflux ratio denotes a quotient of directional permeabilities that is used to spot active efflux.
